Reference: US8252832B2, “Kinesin inhibitors as cancer therapeutics” (Novartis AG, priority 2007, dated 2012)
Where two headings read alike, the source gives them in different places.

Assays:
[1] = system: panel of cell lines derived from solid tumors; assay: Solid tumor cell line panel, fraction of surviving cells after 72 hours; type: cell-based
Procedure: Compound IIa was tested against a panel of cell lines derived from solid tumors as described in See also McDermott, U., Sharma, S. V., Dowell, L., Greninger, P., Montagut, C., Lamb, J., Archibald, H., Raudales, R., Tam, A., Lee, D., Rothenberg, S. M., Supko, J. G., Sordella, R., Ulkus, L. E., Iafrate, A. J., Maheswaran, S., Njauw, C. N., Tsao, H., Drew, L., Hanke, J. H., Ma, X. J., Erlander, M. G., Gray, N. S., Haber, D. A., and Settleman, J. (2007), Identification of genotype-correlated sensitivity to selective kinase inhibitors by using high-throughput tumor cell line profiling. Proc. Natl. Acad. Sci. U.S. A 104, 19936-19941 (2007).) Cells were treated with the compound for 72 hours and the fraction of surviving cells, as compared to an untreated control, was reported. Table 17 lists the name of the cell line, the organ of origin, the fraction of surviving cells at the three concentrations tested (0.2 nM, 2.0 nM and 20 nM) and a sensitivity score. The sensitivity score was from 5 (most sensitive) to 1 (least sensitive) and the scoring was as follows: 5=surviving fraction≦0.2 at 0.2 nM; 4=0.2<surviving fraction≦0.5 at 0.2 nM; 3=surviving fraction>0.5 at 0.2 nM and ≦0.5 at 2.0 nM; 2=surviving fraction>0.5 at 2.0 nM and ≦0.5 at 20 nM; 1=surviving fraction>0.5 at 20 nM.

M14 = assay: CellTiter-Glo, NCI60 panel; type: cell-based; details: Melanoma; for GI50: Homo sapiens
Text: (§1) Identification of tumor types that are the most sensitive to the KSP inhibitors of the present invention can be accomplished using an unbiased approach that uses several cell-based assays. The assays chosen were as follows: • CellTiter-Glo®. This is an assay designed to measure ATP concentration in a cell culture, and can be correlated to cell number. Briefly CellTiter-Glo® (Promega Corporation) is a homogeneous method using the single CellTiter-Glo® reagent to detect ATP wherein ATP in the assay drives the activity of a thermostable luciferase to create a luminescent signal which can then be measured and correlated with the number of viable cells. Briefly, for adherent cells, 1,000 to 5,000 cells/well were plated in 96-well plates (100 μl/well) and let to adhere for 24 hours before being treated with drug. For non-adherent cells, 1,000 to 10,000 cells/well were plated in 96-well plates (100 μl/well) and immediately treated with drug. Drug dilutions were prepared in DMSO at 1000 times the final concentration. These dilutions were then diluted 1/100 in growth media before being added to the cells (11 μl/well) to achieve the desired final concentration. After 48 h in a 37° C. tissue culture incubator, the plates were processed for the CellTiter-Glo®assay according to the manufacturer's instructions. Protocol for a 72 hour cell proliferation assay: The 72 hour assay was performed the same way as the 48 hour assay except for the following modifications: For adherent cells, 500 to 5,000 cells/well were plated in 96-well plates (90 μl/well cell growth media) and left to adhere for 24 hours before being treated with drug. For non-adherent cells, 1,000 to 10,000 cells/well were plated in 96-well plates (90 μl/well cell growth media) and immediately treated with drug. Data values presented represent the concentration of test compound required for a 50% reduction in growth. • LDH release. The Cytotoxicity Detection KitPLUS (LDH) assay (Roche Diagnostics, Manheim, Germany) measures the amount of LDH released in the media by dying cells; LDH catalyzes the conversion of lactate into pyruvate. The enzymatic reaction is coupled to a chemical reaction that uses a tetrazolium salt to form a formazan that is red and can be detected by its absorbance at 490 nm. This assay measures the amount of cell death after drug treatment. Cells were plated at 10,000 cells/well in 96-well plates (100 μl/well). Adherent cells were let to adhere for 24 hours before being treated with drug, whereas non-adherent cells were immediately treated with drug. Drug dilutions were prepared in DMSO at 1000 times the final concentration. These dilutions were then diluted 1/100 in growth media before being added to the cells (11 μl/well) to achieve the desired final concentration. After 48 h in a 37° C. tissue culture incubator, the plates were processed for the Cytotoxicity Detection KitPLUS (LDH) assay according to the manufacturer's instructions. The media only values were subtracted from all the data points before analysis. Data values presented correspond to the compound concentration wherein LDH output is at half maximal level. • Caspase-Glo® 3/7. The Caspase-Glo® 3/7 Assay (Promega Corporation) is a homogeneous luminescent assay that measures caspase-3/7 activities. The assay provides a proluminescent caspase-3/7 DEVD-aminoluciferin substrate and a thermostable luciferase in a reagent optimized for caspase-3/7 activity, luciferase activity and cell lysis. Adding the single Caspase-Glo® 3/7 Reagent results in cell lysis, followed by caspase cleavage of the substrate. This liberates free aminoluciferin, which is consumed by the luciferase, generating a luminescent signal. The signal is proportional to caspase-3/7 activity. Data values presented correspond to the compound concentration wherein caspase 3/7 activity is at half maximal level. […]

OVCAR-8 = assay: CellTiter-Glo, NCI60 panel; type: cell-based; details: Ovarian; for GI50: Homo sapiens
Text: as §1

MDA-MB-231 = assay: CellTiter-Glo, NCI60 panel; type: cell-based; details: Breast; for GI50: Homo sapiens
Text: as §1

HS 578T = assay: CellTiter-Glo, NCI60 panel; type: cell-based; details: Breast; for GI50: Homo sapiens
Text: as §1

HCT-116 = assay: CellTiter-Glo, NCI60 panel; type: cell-based, human; details: Colon; for GI50: Homo sapiens
Text: as §1

COLO 205 = assay: CellTiter-Glo, NCI60 panel; type: cell-based, human; details: Colon; for GI50: Homo sapiens
Text: as §1

T-47D = assay: CellTiter-Glo, NCI60 panel; type: cell-based, human; details: Breast; for GI50: Homo sapiens, T47D
Text: as §1

HCT-15 = assay: CellTiter-Glo, NCI60 panel; type: cell-based, human; details: Colon; for GI50: Homo sapiens
Text: as §1

HT29 = assay: CellTiter-Glo, NCI60 panel; type: cell-based, human; details: for GI50: Homo sapiens, HT-29, Colon
Text: as §1

[2] = GI50 in nM, read-out: Log(GI50) (converted)

With `CC(C)(C)[C@H](c1nc(-c2cc(F)ccc2F)cn1Cc1ccccc1)N(CC[C@H](N)CF)C(=O)CO` [Compound IIa] the average sensitivity score ([1]; brain) was 3.21, the average sensitivity score ([1]; cervix) was 3.00 and the average sensitivity score ([1]; ovary) was 3.38. For the same compound, the average sensitivity score ([1]; skin) was 3.02, the average sensitivity score ([1]; stomach) was 3.32 and the average sensitivity score ([1]; thyroid) was 3.00. The GI50 (M14; [2]) was 0.209 nM, the GI50 (M14; read-out: GI50) was 0.209 nM and the “Differential vs mean Log(GI50)” value (M14) was 1.011. The GI50 (OVCAR-8; [2]) was 0.324 nM, the GI50 (OVCAR-8; read-out: GI50) was 0.324 nM and the “Differential vs mean Log(GI50)” value (OVCAR-8) was 0.821. The “Differential vs mean Log(GI50)” value (MDA-MB-231) was 0.809, the GI50 (MDA-MB-231; [2]) was 0.333 nM and the GI50 (MDA-MB-231; read-out: GI50) was 0.333 nM. For the same compound, the “Differential vs mean Log(GI50)” value (HS 578T) was 0.989, the GI50 (HS 578T; [2]) was 0.22 nM and the GI50 (HS 578T; read-out: GI50) was 0.22 nM. For the same compound, the “Differential vs mean Log(GI50)” value (HCT-116) was 1.191, the GI50 (HCT-116; [2]) was 0.138 nM and the GI50 (HCT-116; read-out: GI50) was 0.138 nM. The “Differential vs mean Log(GI50)” value (COLO 205) was −0.669, the GI50 (COLO 205; [2]) was 10 nM and the GI50 (COLO 205; read-out: GI50) was 10 nM. For the same compound, the “Differential vs mean Log(GI50)” value (T-47D) was −0.669, the GI50 (T-47D; [2]) was 10 nM and the GI50 (T-47D; read-out: GI50) was 10 nM. For the same compound, the “Differential vs mean Log(GI50)” value (HCT-15) was 0.754, the GI50 (HCT-15; [2]) was 0.378 nM and the GI50 (HCT-15; read-out: GI50) was 0.378 nM. The “Differential vs mean Log(GI50)” value (HT29; Colon) was −0.669, the GI50 (HT29; [2]) was 10 nM and the GI50 (HT29; read-out: GI50) was 10 nM.
